Legend:
[1] = system: indicator microorganisms
[2] = system: P. agglomerans CNCM I-5055; assay: Log loss after heat treatment on macadamia; assay type: cell-based; conditions: 3% dye
Protocol: (§1) “Log loss” refers to the difference between initial viability and viability at a given time.
(§2) The test is performed for the following 3 strains: E. faecium ATCC 8459, P. agglomerans CNCM I-5055 and A. pascens CNCM I-5181.
(§3) Addition of 10% pure lyophilisate of the strains to 5 g of maltodextrin. Vortexing for homogenization. Addition of 3% of dye. Vortexing. Addition of 1% of the dyed strain mixture diluted 1/10 to 5 g of macadamia. Mixing with a sterile spatula. Drying 2 h. Deposition of 0.3 g in Eppendorf tubes then heat treatment of the tubes in a dry bath at 90 and 100° C. for 0, 2, 5, 10 minutes

[3] = system: E. faecium ATCC 8459; assay: Log loss after heat treatment on macadamia; assay type: cell-based; conditions: 3% dye
Protocol: as §1, §2, §3

[4] = system: A. pascens CNCM I-5181; assay: Log loss after heat treatment on macadamia; assay type: cell-based; conditions: 3% dye
Protocol: as §1, §2, §3

[5] = system: P. agglomerans CNCM I-5055; assay: Log loss after heat treatment on nonfat dried milk NFDM; assay type: cell-based; conditions: 3% dye
Protocol: as §1, §2
(§4) Addition of 10% of pure lyophilisate of the strains to 5 g of maltodextrin. Vortexing for homogenization. […] Vortexing. Addition of 1% of the dyed strain mixture diluted 1/10 to 5 g NFDM. Vortexing. Deposition of 0.1 g in Eppendorf tubes then heat treatment of the tubes in a dry bath at 90 and 100° C. for 2, 5 and 10 minutes

[6] = system: E. faecium ATCC 8459; assay: as above; assay type: cell-based; conditions: 3% dye
Protocol: as §1, §2, §4

[7] = system: A. pascens CNCM I-5181; assay: as above; assay type: cell-based; conditions: 3% dye
Protocol: as §1, §2, §4

[8] = system: P. agglomerans CNCM I-5055; assay: Log loss after heat treatment on black pepper; assay type: cell-based; conditions: 3% dye
Protocol: as §1
(§5) The test is performed for the following 3 strains: E. faecium ATCC 8459, P. agglomerans CNCM I-5055 and A. pascens CNCM I-5181
as §3, with “10% of” for “10%”, “Addition of 3% of dye.” left out, “black pepper followed by a spray of wet fixing agent for good adhesion.” for “macadamia.”, “0.2” for “0.3”, “for” for “for 0,”, “5 and” for “5,”

[9] = system: E. faecium ATCC 8459; assay: Log loss after heat treatment on black pepper; assay type: cell-based; conditions: 3% dye
Protocol: as §1, §5
as §3, with “10% of” for “10%”, “Addition of 3% of dye.” left out, “black pepper followed by a spray of wet fixing agent for good adhesion.” for “macadamia.”, “0.2” for “0.3”, “for” for “for 0,”, “5 and” for “5,”

[10] = system: A. pascens CNCM I-5181; assay: Log loss after heat treatment on black pepper; assay type: cell-based; conditions: 3% dye
Protocol: as §1, §5
as §3, with “10% of” for “10%”, “Addition of 3% of dye.” left out, “black pepper followed by a spray of wet fixing agent for good adhesion.” for “macadamia.”, “0.2” for “0.3”, “for” for “for 0,”, “5 and” for “5,”

[11] = system: Enterococcus faecium; assay: Heat resistance (log loss) of E. faecium compositions with brilliant blue FCF at 100° C.; assay type: cell-based; conditions: 3% dye
Protocol: as §1
Method: The Enterococcus faecium strain in dry form was mixed with an inert support (maltodextrin) and with each dye individually. The subsequent mixture is placed in an Eppendorf tube in a dry bath at a temperature of 100° C. Samples were taken at 2, 5 and 10 min and cell counts were performed on TSA (Trypticase Soy Agar) medium for 24 h at 37° C.
Must: addition of 3% of blue dye powder to 5 mL of fermentation must in a sterile jar. Vortexing for homogenization, distribution in tubes and heat treatment.
Pure: addition of 3% of dye to 5 g of pure lyophilisate in a sterile jar. Vortexing for homogenization, distribution in tubes and heat treatment.
Support: addition of 1% of pure lyophilisate to 5 g of maltodextrin in a sterile jar (1/100 dilution). Vortexing for homogenization, then addition of 3% of dye. Vortexing then distribution in tubes and heat treatment.

In the case of `CCN(Cc1cccc(S(=O)(=O)O)c1)c1ccc(C(=C2C=CC(=[N+](CC)Cc3cccc(S(=O)(=O)O)c3)C=C2)c2ccccc2S(=O)(=O)[O-])cc1` [brilliant blue FCF], the “effect on viability of the indicator microorganisms” value [1] was “does not affect the viability of the indicator microorganisms”, the “Log loss at 90° C.” value ([2]; 2 min) was 0.3 and the “Log loss at 100° C.” value ([2]; 2 min) was 0.14. For the same compound, the “Log loss at 90° C.” value ([2]; 5 min) was 0.6, the “Log loss at 100° C.” value ([2]; 5 min) was 0.15 and the “Log loss at 90° C.” value ([2]; 10 min) was 0.14. The “Log loss at 100° C.” value ([2]; 10 min) was 1.36, the “Log loss at 90° C.” value ([3]; 2 min) was 0.2 and the “Log loss at 100° C.” value ([3]; 2 min) was 0.24. For the same compound, the “Log loss at 90° C.” value ([3]; 5 min) was 0.53, the “Log loss at 100° C.” value ([3]; 5 min) was 0.47 and the “Log loss at 90° C.” value ([3]; 10 min) was 1.2. The “Log loss at 100° C.” value ([3]; 10 min) was 1.24, the “Log loss at 90° C.” value ([4]; 2 min) was 0.25 and the “Log loss at 100° C.” value ([4]; 2 min) was 0.05. For the same compound, the “Log loss at 90° C.” value ([4]; 5 min) was 0.18, the “Log loss at 100° C.” value ([4]; 5 min) was 0.12 and the “Log loss at 90° C.” value ([4]; 10 min) was 0.38. The “Log loss at 100° C.” value ([4]; 10 min) was 0.6, the “Log loss at 90° C.” value ([5]; 2 min) was 0.07 and the “Log loss at 100° C.” value ([5]; 2 min) was 0.13. For the same compound, the “Log loss at 90° C.” value ([5]; 5 min) was 0.07, the “Log loss at 100° C.” value ([5]; 5 min) was 0.67 and the “Log loss at 90° C.” value ([5]; 10 min) was 0.37. For the same compound, the “Log loss at 100° C.” value ([5]; 10 min) was 0.72, the “Log loss at 90° C.” value ([6]; 2 min) was 0.51 and the “Log loss at 100° C.” value ([6]; 2 min) was 0.36. For the same compound, the “Log loss at 90° C.” value ([6]; 5 min) was 0.36, the “Log loss at 100° C.” value ([6]; 5 min) was 0.59 and the “Log loss at 90° C.” value ([6]; 10 min) was 0.46. For the same compound, the “Log loss at 100° C.” value ([6]; 10 min) was 1.29, the “Log loss at 90° C.” value ([7]; 2 min) was 0.06 and the “Log loss at 100° C.” value ([7]; 2 min) was 0.26. For the same compound, the “Log loss at 90° C.” value ([7]; 5 min) was 0.46, the “Log loss at 100° C.” value ([7]; 5 min) was 0.35 and the “Log loss at 90° C.” value ([7]; 10 min) was 0.62. For the same compound, the “Log loss at 100° C.” value ([7]; 10 min) was 1.82, the “Log loss at 90° C.” value ([8]; 2 min) was 1.12 and the “Log loss at 100° C.” value ([8]; 2 min) was 1.26. For the same compound, the “Log loss at 90° C.” value ([8]; 5 min) was 1.6, the “Log loss at 100° C.” value ([8]; 5 min) was 1.45 and the “Log loss at 90° C.” value ([8]; 10 min) was 1.77. The “Log loss at 100° C.” value ([8]; 10 min) was 2.14, the “Log loss at 90° C.” value ([9]; 2 min) was 0.31 and the “Log loss at 100° C.” value ([9]; 2 min) was 1.35. The “Log loss at 90° C.” value ([9]; 5 min) was 0.82, the “Log loss at 100° C.” value ([9]; 5 min) was 1.37 and the “Log loss at 90° C.” value ([9]; 10 min) was 1.46. The “Log loss at 100° C.” value ([9]; 10 min) was 2.19, the “Log loss at 90° C.” value ([10]; 2 min) was 0.59 and the “Log loss at 100° C.” value ([10]; 2 min) was 0.27. The “Log loss at 90° C.” value ([10]; 5 min) was 0.76, the “Log loss at 100° C.” value ([10]; 5 min) was 0.64 and the “Log loss at 90° C.” value ([10]; 10 min) was 0.85. For the same compound, the “Log loss at 100° C.” value ([10]; 10 min) was 0.85, the “Log loss at 100° C.” value ([11]; Must (fermentation must), 2 min) was 1.23 and the “Log loss at 100° C.” value ([11]; Must (fermentation must), 5 min) was 1.44. For the same compound, the “Log loss at 100° C.” value ([11]; Must (fermentation must), 10 min) was 2.16, the “Log loss at 100° C.” value ([11]; Pure (lyophilisate without support), 2 min) was 0.02 and the “Log loss at 100° C.” value ([11]; Pure (lyophilisate without support), 5 min) was 0.17. For the same compound, the “Log loss at 100° C.” value ([11]; Pure (lyophilisate without support), 10 min) was 0.50, the “Log loss at 100° C.” value ([11]; Support (maltodextrin), 2 min) was 0.13 and the “Log loss at 100° C.” value ([11]; Support (maltodextrin), 5 min) was 0.94. The “Log loss at 100° C.” value ([11]; Support (maltodextrin), 10 min) was 1.97.
